Experiment [1] deals with HIV-1-LAI strain. The experiment in a line: Antiviral activity assay on PBMCs infected by HIV isolates (reverse transcriptase in day 7 supernatant). The class given is cell-based. The note with it: Human immunodeficiency virus 1, PBMC. The protocol: Mononucleated cells were isolated from peripheral blood of a healthy donor (and seronegative for HIV and hepatitis viruses) with a gradient of Ficoll-Hypaque. The PBMCs were activated by […] of phytohemaglutinine-P (PHA-P, Difco Laboratories, Detroit, USA) during three days, then cultured at 200,000 cells per well in a 96-well plate, in a culture medium A, complemented by 20 IU/ml of recombinant interleukin-2 (rHuIL-2, Roche Products, Mannheim, Germany). Medium A consists of: RPMI cell culture (RPMI 1640, Roche Products), 10% Fetal Calf Serum (FCS, Roche Products complement inactivated by heating at 56°C for 45mn, 2mM L-glutamine (Roche Products) and a solution of three antibiotics (penicillin, streptomycin and neomycin (PSN, LifeTechnologies, Grand Island, JSA). During culture, cells were maintained at +37°C, in a saturated humid atmosphere, under 5% CO2.
PBMCs were infected over 1 hour at 37°C with a 10 000 tissue culture infectious dose 50% (TCID50) of the lymphocytary tropism reference strain HIV-1-LAI. At the end of the incubation, cells were washed twice with medium A. The HIV-1 strain was exclusively amplified, in the Neurovirology Service, with Umbilical Blood Mononucleated Cells (UBMC) activated with PHA-P, and the TCID50 was calculated using the Kärber formula.
The mimetic and the scrambled peptide were dissolved in ultrapure sterile water. Five concentrations were tested (50 µM, 10 µM, 5 µM, 1 µM and 0.5 µM). Antibodies ST40 and 9E8 (provided by the CNRS UMR 9921, Montpellier) were tested at the following concentrations: 100 µg/ml, 10 µg/ml, 1 µg/ml, 100 ng/ml and 10 ng/ml.
(§1) The activities of these compounds were compared to the Q4120 reference antibody and to AZT. […] The anti-HIV activity of AZT was measured at the following concentrations: 10 µM, 1 µM, 100 nM, 10 nM and 1 nM. […]
(§2) All experiments were performed in triplicate. […] The viral replication was measured by dosing the inverse transcriptase activation in the supernatant of the 7th day culture, using a dosing kit Retrosys(r), supplied by Innovagen (Lund, Sweden).

The target of a further experiment is T1, human recombinant CD4 (Homo sapiens, UniProt P01730).
T1 construct: purchased RepliGen (USA)
The experiment in a line: BIAcore surface plasmon resonance kinetic analysis: binding of soluble CD4 to immobilized mimetic. The protocol:
The human recombinant CD4 used for the kinetic analysis and the biological assays was obtained from RepliGen (USA).
The kinetic parameters, association rate constant (ka) and dissociation rate constant (kd), were determined by surface plasmon resonance (SPR) analysis using BIACORE 2000 (Biacore AB, Uppsala, Sweden). ka and kd were determined using BIAevaluation 3.0 software (BIAcore AB). The apparent equilibrium constant KD is the ratio kd/ka. All experiments were carried out at 25°C.
The free SH group of the lysine side chain extended by a 3-mercaptopropionic acid linker of the mimetic was used to chemically immobilize molecules on a B1 sensor chip (BIAcore AB) following a standard PDEA/EDC/NHS procedure from BIAcore.
The binding kinetic of CD4 to immobilized mimetic was determined by injecting CD4 (1-20 µg/ml, 16-330 nM) in HBS buffer (running buffer) at a flow rate of 30 µl/min.
A general note: SPR reads the build-up and loss of mass on a sensor chip optically.

Experiment [2] has as its system HIV-1-LAI strain. The class given is cell-based. The conditions noted are these: dose independent, non-linear behavior. The protocol:
Mononucleated cells were isolated from peripheral blood of a healthy donor (and seronegative for HIV and hepatitis viruses) with a gradient of Ficoll-Hypaque. The PBMCs were activated by […] of phytohemaglutinine-P (PHA-P, Difco Laboratories, Detroit, USA) during three days, then cultured at 200,000 cells per well in a 96-well plate, in a culture medium A, complemented by 20 IU/ml of recombinant interleukin-2 (rHuIL-2, Roche Products, Mannheim, Germany). […]
PBMCs were infected over 1 hour at 37°C with a 10 000 tissue culture infectious dose 50% (TCID50) of the lymphocytary tropism reference strain HIV-1-LAI. At the end of the incubation, cells were washed twice with medium A. The HIV-1 strain was exclusively amplified, in the Neurovirology Service, with Umbilical Blood Mononucleated Cells (UBMC) activated with PHA-P, and the TCID50 was calculated using the Kärber formula. […]
as §1, §2

Each structure is given as a SMILES string. Where a SMILES comes first, the peptide text is derived from it. Bridges are numbered along the chain shown (N, C = ends). Mpa = O=C(O)CCS

A word on the inhibition: it is the percentage by which the read-out fell short of the control. Lower therefore signals little suppression. For `Cc1cn([C@H]2C[C@H](N=[N+]=[N-])[C@@H](CO)O2)c(=O)[nH]c1=O` [AZT], in the experiment with HIV-1-LAI strain [1], 0.001 µM produced 66 ± 5% inhibition, testing at 0.01 µM gave an inhibition of 74 ± 13% and the inhibition at 0.1 µM was determined as 100%.
Broadly, the Kd is the free concentration of one partner at which half of the binding sites on the other are occupied at equilibrium, for simple one-to-one binding. As for `CC(=O)N[C@@H](C)C(=O)N[C@@H](CCCNC(=N)N)C(=O)N[C@@H](CCCNC(=N)N)C(=O)N1CCC[C@H]1C(=O)N[C@H]1CCCCNC(=O)[C@@H]2CCCN2C(=O)CNC(=O)[C@H](Cc2ccc(O)cc2)NC(=O)[C@H](C)NC(=O)[C@H](C(C)C)NC(=O)[C@H](Cc2c[nH]c3ccccc23)NC(=O)[C@@H]2CCCN2C(=O)CNC(=O)[C@H](Cc2c[nH]c3ccccc23)NC(=O)[C@H](C(C)C)NC(=O)[C@H](CC(N)=O)NC(=O)[C@@H]2CCCN2C(=O)[C@H](Cc2c[nH]cn2)NC(=O)[C@H](CC(N)=O)NC(=O)[C@H](CCCCNC(=O)CCS)NC(=O)[C@H](C(C)C)NC(=O)[C@H](Cc2ccc(O)cc2)NC(=O)[C@@H]2CCCN2C(=O)[C@H](C)NC(=O)[C@H](CCCNC(=N)N)NC(=O)[C@H](Cc2ccc(O)cc2)NC(=O)[C@H](Cc2ccccc2)NC1=O` [Mk3Tyr-long1SH] (Ac-ARRPKFYRAPYVK(Mpa)NHPNVWGPWVAYGP; lactam 5-C), the kon on human recombinant CD4 (immobilized mimetic and soluble CD4, 25°C, read-out: ka) was 82600 M⁻¹ s⁻¹. For the same compound, the dissociation constant (Kd) at human recombinant CD4 (ratio kd/ka, read-out: calculated KD) is 3.2 nM.
Regarding `CC[C@H](C)[C@H](NC(C)=O)C(=O)N[C@@H](Cc1c[nH]c2ccccc12)C(=O)N[C@H](C(=O)N[C@H]1CCCCNC(=O)CNC(=O)[C@H](Cc2c[nH]c3ccccc23)NC(=O)[C@H](C(C)C)NC(=O)[C@@H]2CCCN2C(=O)[C@H](CCCNC(=N)N)NC(=O)[C@H](C)NC(=O)[C@H](CC(N)=O)NC(=O)[C@@H]2CCCN2C(=O)[C@H](C)NC(=O)[C@H](CCCNC(=N)N)NC(=O)[C@@H]2CCCN2C(=O)CNC(=O)[C@H](Cc2ccc(O)cc2)NC(=O)[C@H](Cc2ccccc2)NC(=O)[C@H](CS)NC(=O)[C@H](CCCNC(=N)N)NC(=O)[C@H](CC(N)=O)NC(=O)[C@H](Cc2ccc(O)cc2)NC(=O)[C@@H]2CCCN2C(=O)[C@H](C(C)C)NC(=O)[C@H](Cc2c[nH]cn2)NC(=O)[C@@H]2CCCN2C(=O)[C@H](C)NC1=O)C(C)C` [scrambled peptide] (Ac-IWVKAPHVPYNRCFYGPRAPNARPVWG; lactam 4-C), in the experiment on HIV-1-LAI strain [2], the “anti-retroviral activity (in words)” value is on record as “within the background noise”.
